{
  "source": "patent US20210253651A1",
  "about": "“METHOD FOR PRODUCING ORGANIC COMPOUND-ENCAPSULATING FERRITIN” (Ajinomoto Co., Inc., priority 2018, published 2021)",
  "key": {"FTH ferritin [1]": {"target": "T1, FTH ferritin (Homo sapiens, UniProt P02794)", "T1 construct": "made in house; host or cells: Escherichia coli BL21 (DE3), plasmid pET20-FTH", "T1 sequence (P02794 whole entry)": "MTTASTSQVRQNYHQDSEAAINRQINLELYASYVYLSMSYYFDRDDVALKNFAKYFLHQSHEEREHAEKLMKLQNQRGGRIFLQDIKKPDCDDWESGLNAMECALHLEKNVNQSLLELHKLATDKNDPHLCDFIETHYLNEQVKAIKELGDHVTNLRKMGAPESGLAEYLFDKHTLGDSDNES", "experiment": "one-step process incorporation of small molecule agents into FTH ferritin", "assay_type": "physicochemical", "conditions": "for Incorporation efficiency (wt %) / Number of agent incorporated: 60 min", "method": "All of the reactions were performed in 0.1 mL volume. […] The absorbances were measured using spectrophotometer (DU-800, Beckman Coulter Inc.) for these solutions, and the concentration of contained protein was determined using the protein assay CBB solution (Nacalai Tesque, Inc.) as well as bovine albumin as a standard. Absorbances at 280 nm and 480 nm were measured for Rhodamine B and Congo Red. […] Then, after the absorbances were calibrated based on the absorbances that were derived from the proteins and presumed by the amount of contained protein quantified using the protein assay CBB solution, the concentrations of small molecule agents were determined based on the calibration curves obtained by the absorbances of the molecules. […] As a result, the one-step process enabled incorporating also the small molecule agents with different physical properties such as molecular weight and pKa simply and easily."}, "FTH ferritin [2]": {"target": "T1, FTH ferritin", "experiment": "ratio of amounts incorporated, one-step vs disassembly-reassembly process", "assay_type": "physicochemical", "method": "As a control, some of small molecule agents listed in Table 1 was incorporated into ferritin also at the disassembly-reassembly process. […] Then, 10 μL of 1M Tris-HCl buffer (pH 9.0) was added for neutralization, and the resulting solution was left to stand for 15 minutes at room temperature. After the standing, 0.5 mL of water was added. After the resulting solution was centrifuged (at 15,000 rpm for one minute), the supernatant was injected into the desalting column PD-10 (Sephadex G-25 filled product, GE Healthcare Inc.) equilibrated with 10 mM Tris-HCl buffer (pH 8) to separate the protein from a reagent that was not encapsulated. […]\nThe absorbances were measured using spectrophotometer (DU-800, Beckman Coulter Inc.) for these solutions, and the concentration of contained protein was determined using the protein assay CBB solution (Nacalai Tesque, Inc.) as well as bovine albumin as a standard. Absorbances at 280 nm and 480 nm were measured for Rhodamine B and Congo Red. […] Then, after the absorbances were calibrated based on the absorbances that were derived from the proteins and presumed by the amount of contained protein quantified using the protein assay CBB solution, the concentrations of small molecule agents were determined based on the calibration curves obtained by the absorbances of the molecules. […]"}},
  "data": [
    {"smiles": "CN(C)C(=N)NC(=N)N", "note": "[Metformin]", "values": [
      {"measurement": "Incorporation efficiency (wt %)", "setting": "FTH ferritin [1]; pH 4, 40° C.", "value": 0.0, "unit": "wt %"},
      {"measurement": "Number of agent incorporated", "setting": "FTH ferritin [1]; pH 4, 40° C.", "value": 0.0},
      {"measurement": "Incorporation efficiency (wt %)", "setting": "FTH ferritin [1]; pH 6, 40° C.", "value": 0.0, "unit": "wt %"},
      {"measurement": "Number of agent incorporated", "setting": "FTH ferritin [1]; pH 6, 40° C.", "value": 0.2},
      {"measurement": "Incorporation efficiency (wt %)", "setting": "FTH ferritin [1]; pH 8, 20° C.", "value": 1.9, "unit": "wt %"},
      {"measurement": "Number of agent incorporated", "setting": "FTH ferritin [1]; pH 8, 20° C.", "value": 78.0},
      {"measurement": "Incorporation efficiency (wt %)", "setting": "FTH ferritin [1]; pH 8, 40° C.", "value": 0.1, "unit": "wt %"},
      {"measurement": "Number of agent incorporated", "setting": "FTH ferritin [1]; pH 8, 40° C.", "value": 2.9},
      {"measurement": "Incorporation efficiency (wt %)", "setting": "FTH ferritin [1]; pH 8, 60° C.", "value": 1.3, "unit": "wt %"},
      {"measurement": "Number of agent incorporated", "setting": "FTH ferritin [1]; pH 8, 60° C.", "value": 53.5},
      {"measurement": "Incorporation efficiency (wt %)", "setting": "FTH ferritin [1]; pH 10, 40° C.", "value": 0.0, "unit": "wt %"},
      {"measurement": "Number of agent incorporated", "setting": "FTH ferritin [1]; pH 10, 40° C.", "value": 1.8},
      {"measurement": "Optimal pH in reaction", "setting": "FTH ferritin [1]; pH of buffer giving the largest amount of incorporation within ferritin", "value": 8},
      {"measurement": "ratio of amount incorporated at the one-step process to that at the disassembly-reassembly process", "setting": "FTH ferritin [2]", "value": 2.5, "unit": "fold"}
    ]}
  ]
}
